In ChEMBL document CHEMBL1145068 (J Med Chem, 2003):

Legend:
[1] = biological target: D(3) dopamine receptor (Rattus norvegicus, UniProt P19020); assay: biochemical
Description: Binding affinity for rat striatum Dopamine receptor D3 (sf9 cells) by [3H]7-OH-DPAT displacement.

[2] = biological target: T1, Alpha-1A adrenergic receptor (Rattus norvegicus, UniProt P43140); assay: Binding affinity for rat cortex alpha-1 adrenergic receptor by inhibition of [3H]prazosin binding
T1 sequence (P43140 whole entry): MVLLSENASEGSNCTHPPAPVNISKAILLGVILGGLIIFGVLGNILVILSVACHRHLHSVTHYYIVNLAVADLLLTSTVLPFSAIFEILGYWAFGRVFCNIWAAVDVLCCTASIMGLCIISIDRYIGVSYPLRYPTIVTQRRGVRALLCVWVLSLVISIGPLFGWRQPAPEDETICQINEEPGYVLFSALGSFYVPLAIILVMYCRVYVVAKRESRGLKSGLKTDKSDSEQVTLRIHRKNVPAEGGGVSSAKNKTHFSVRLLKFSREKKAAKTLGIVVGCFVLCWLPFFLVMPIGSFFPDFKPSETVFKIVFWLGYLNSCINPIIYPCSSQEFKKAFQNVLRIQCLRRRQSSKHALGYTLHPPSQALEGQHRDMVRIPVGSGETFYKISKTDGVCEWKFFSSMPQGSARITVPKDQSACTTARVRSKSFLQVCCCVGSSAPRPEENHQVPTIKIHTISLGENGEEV

[3] = biological target: T2, Alpha-2A adrenergic receptor (Rattus norvegicus, UniProt P22909); assay: Binding affinity for rat cortex Alpha-2 adrenergic receptor was determined using [3H]-RX 81002 binding
T2 sequence (P22909 whole entry): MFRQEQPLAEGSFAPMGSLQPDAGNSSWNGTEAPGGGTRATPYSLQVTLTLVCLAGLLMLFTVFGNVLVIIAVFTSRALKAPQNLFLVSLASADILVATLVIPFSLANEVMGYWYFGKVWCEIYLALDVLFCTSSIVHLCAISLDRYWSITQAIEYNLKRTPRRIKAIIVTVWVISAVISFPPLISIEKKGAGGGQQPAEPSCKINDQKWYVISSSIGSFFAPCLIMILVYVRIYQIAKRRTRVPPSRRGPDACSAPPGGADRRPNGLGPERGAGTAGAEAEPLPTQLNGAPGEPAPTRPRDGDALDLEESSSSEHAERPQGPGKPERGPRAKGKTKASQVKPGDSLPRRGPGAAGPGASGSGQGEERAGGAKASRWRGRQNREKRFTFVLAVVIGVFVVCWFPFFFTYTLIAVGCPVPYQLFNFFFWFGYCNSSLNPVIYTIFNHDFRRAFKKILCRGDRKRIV

[4] = biological target: D(1A) dopamine receptor (Rattus norvegicus, UniProt P18901); assay: Binding affinity for rat striatum Dopamine receptor D1 by […] displacement.; format: tissue-based
D(1A) dopamine receptor, sequence (P18901 whole entry): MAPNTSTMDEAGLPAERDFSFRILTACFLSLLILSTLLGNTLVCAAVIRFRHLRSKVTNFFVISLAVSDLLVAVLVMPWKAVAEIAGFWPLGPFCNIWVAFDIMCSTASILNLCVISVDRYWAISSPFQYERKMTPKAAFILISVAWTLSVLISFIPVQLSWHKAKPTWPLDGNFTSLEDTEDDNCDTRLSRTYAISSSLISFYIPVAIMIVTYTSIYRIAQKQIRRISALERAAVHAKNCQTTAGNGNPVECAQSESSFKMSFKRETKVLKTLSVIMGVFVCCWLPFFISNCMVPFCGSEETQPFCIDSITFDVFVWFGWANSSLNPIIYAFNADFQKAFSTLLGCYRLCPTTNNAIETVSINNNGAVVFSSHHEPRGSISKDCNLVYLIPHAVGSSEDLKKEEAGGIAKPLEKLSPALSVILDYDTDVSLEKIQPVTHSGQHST

[5] = biological target: D(3) dopamine receptor (Homo sapiens) (UniProt P35462); assay: Maximal stimulation reached was evaluated by using [35S]- GTP-gamma S radioligand; format: functional
D(3) dopamine receptor (Homo sapiens), sequence (P35462 whole entry): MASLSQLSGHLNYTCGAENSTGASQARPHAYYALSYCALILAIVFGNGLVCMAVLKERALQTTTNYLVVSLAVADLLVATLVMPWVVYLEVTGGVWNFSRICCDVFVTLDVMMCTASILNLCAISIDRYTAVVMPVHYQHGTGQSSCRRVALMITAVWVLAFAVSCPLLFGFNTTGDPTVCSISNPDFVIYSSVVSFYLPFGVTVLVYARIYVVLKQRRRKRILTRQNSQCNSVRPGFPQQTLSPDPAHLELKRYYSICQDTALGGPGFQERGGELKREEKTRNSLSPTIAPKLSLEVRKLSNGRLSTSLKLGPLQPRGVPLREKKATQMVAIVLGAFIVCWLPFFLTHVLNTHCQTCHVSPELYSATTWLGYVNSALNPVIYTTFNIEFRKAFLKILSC

[6] = biological target: D(2) dopamine receptor (Rattus norvegicus, UniProt P61169); assay: Binding affinity for rat striatum Dopamine receptor D2 by [3H]spiperone displacement.; format: tissue-based
D(2) dopamine receptor, sequence (P61169 whole entry): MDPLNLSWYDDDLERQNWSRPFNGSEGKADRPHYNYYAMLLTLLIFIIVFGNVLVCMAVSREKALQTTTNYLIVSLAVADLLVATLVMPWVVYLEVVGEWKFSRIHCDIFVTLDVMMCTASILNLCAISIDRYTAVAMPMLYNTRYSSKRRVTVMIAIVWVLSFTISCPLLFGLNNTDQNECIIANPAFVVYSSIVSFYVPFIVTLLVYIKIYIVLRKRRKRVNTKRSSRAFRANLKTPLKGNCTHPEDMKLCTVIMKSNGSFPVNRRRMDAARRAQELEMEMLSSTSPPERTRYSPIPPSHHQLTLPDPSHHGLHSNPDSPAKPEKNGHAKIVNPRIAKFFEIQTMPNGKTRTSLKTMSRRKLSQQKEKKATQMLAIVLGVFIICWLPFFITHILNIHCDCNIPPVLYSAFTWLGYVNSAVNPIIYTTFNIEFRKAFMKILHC

[7] = biological target: T3, 5-hydroxytryptamine receptor 1A (Rattus norvegicus, UniProt P19327); assay: Binding affinity for rat hippocampus 5-hydroxytryptamine 1A receptor by inhibition of [3H]8-OH-DPAT binding; format: tissue-based
T3 sequence (P19327 whole entry): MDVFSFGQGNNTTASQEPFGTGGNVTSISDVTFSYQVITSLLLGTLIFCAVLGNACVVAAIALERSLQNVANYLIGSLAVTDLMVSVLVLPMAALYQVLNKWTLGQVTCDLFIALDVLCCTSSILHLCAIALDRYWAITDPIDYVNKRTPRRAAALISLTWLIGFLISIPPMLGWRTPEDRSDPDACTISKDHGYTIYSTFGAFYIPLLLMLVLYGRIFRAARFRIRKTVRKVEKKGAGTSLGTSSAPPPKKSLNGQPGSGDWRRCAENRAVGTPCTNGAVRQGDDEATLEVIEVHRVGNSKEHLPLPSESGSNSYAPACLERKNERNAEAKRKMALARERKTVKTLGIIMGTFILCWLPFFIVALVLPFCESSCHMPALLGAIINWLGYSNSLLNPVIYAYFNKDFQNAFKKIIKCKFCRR

[8] = biological target: T2, Alpha-2A adrenergic receptor; assay: Binding affinity for rat cortex alpha-2 adrenergic receptor was determined using [3H]-RX 81002 binding

D(3) dopamine receptor, sequence (P19020 whole entry): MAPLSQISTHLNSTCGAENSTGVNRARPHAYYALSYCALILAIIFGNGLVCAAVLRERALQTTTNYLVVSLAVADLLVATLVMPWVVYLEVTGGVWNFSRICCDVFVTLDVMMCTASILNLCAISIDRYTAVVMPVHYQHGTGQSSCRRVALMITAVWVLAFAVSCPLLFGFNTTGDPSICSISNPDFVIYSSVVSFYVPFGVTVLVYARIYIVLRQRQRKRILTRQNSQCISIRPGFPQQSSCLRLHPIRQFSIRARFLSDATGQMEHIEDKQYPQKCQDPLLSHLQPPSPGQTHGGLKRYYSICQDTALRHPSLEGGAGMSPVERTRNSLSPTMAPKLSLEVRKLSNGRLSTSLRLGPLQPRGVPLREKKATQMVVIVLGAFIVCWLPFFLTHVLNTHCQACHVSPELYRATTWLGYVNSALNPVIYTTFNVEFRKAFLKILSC

Compound | Ki [1] | Ki [2] | Ki [3] | Ki [4] | Activity [5] | Ki [6] | Ki [7] | Ki [8]
COc1ccccc1N1CCN(CCCCNC(=O)[C@H]2Cc3ccccc3CN2)CC1 | 4.3 nM |  |  |  |  |  |  | 
O=C(NCCCCN1CCN(c2ccc(Cl)cc2Cl)CC1)c1cc2ccccc2[nH]1 |  | 547 nM | > 10000 nM | > 10000 nM |  |  |  | 
NCCc1c[nH]c2ccc(O)cc12 |  |  |  |  | 30 µM |  |  | 
COc1ccccc1N1CCN(CCCCNC(=O)c2nc3ccccc3n3cccc23)CC1 | 28 nM |  |  | 778 nM |  | 59 nM |  | 
COc1ccccc1N1CCN(CCCCNC(=O)c2cc3ccccc3o2)CC1 |  | 36 nM | 54 nM |  |  |  |  | 
O=C(NCCCCN1CCN(c2ccc(Cl)cc2Cl)CC1)c1cc2ccccc2cn1 | 0.66 nM | 629 nM | 1050 nM | 7750 nM |  | 342 nM | 1050 nM | 
COc1ccccc1N1CCN(CCCCNC(=O)c2ccc3ccccc3c2)CC1 [BP-897] |  |  | 83 nM |  |  |  |  | 
COc1ccccc1N1CCN(CCCCNC(=O)c2cnc3ccccc3n2)CC1 | 11 nM |  |  | 1440 nM |  | 84 nM |  | 
COc1ccccc1N1CCN(CCNCc2coc(-c3ccc4ccccc4c3)n2)CC1 | 295 nM |  |  | > 10000 nM |  | 86 nM |  | 
COc1ccccc1N1CCN(CCNCc2coc(-c3cc4ccccc4o3)n2)CC1 | 759 nM |  |  | > 10000 nM |  | 518 nM |  | 
COc1ccccc1N1CCN(CCCCNC(=O)c2cc3ccccc3[nH]2)CC1 | 2.9 nM | 666 nM | 76 nM | 970 nM |  | 160 nM | 11.8 nM | 
O=C(NCCCCN1CCN(c2ccc(Cl)c(Cl)c2)CC1)c1cc2ccccc2o1 | 7.8 nM |  |  | 1660 nM |  | 333 nM |  | 
N#Cc1ccc(N2CCN(CCCCNC(=O)c3cc4ccccc4o3)CC2)cc1 | 41.3 nM |  |  |  |  |  |  | 
O=C(NCCCCN1CCN(c2ccc(Cl)cc2Cl)CC1)c1cc2ccccc2o1 | 0.41 nM | 779 nM | 1890 nM | 7660 nM |  | 409 nM | 908 nM | 
COc1ccccc1N1CCN(CCCCNC(=O)c2ccc3ccccc3n2)CC1 | 4.8 nM |  |  | 1350 nM |  | 83 nM |  | 
COc1ccccc1N1CCN(CC2CCN(C(=O)c3cc4ccccc4o3)CC2)CC1 | 74 nM |  |  | 2680 nM |  | 244 nM |  | 
COc1ccccc1N1CCN(CCCCNC(=O)[C@@H]2Cc3ccccc3CN2)CC1 | 9.2 nM |  |  |  |  |  |  | 
COc1ccccc1N1CCN(CCCCNC(=O)c2cc3ccccc3cn2)CC1 | 0.49 nM | 5.8 nM |  | 1480 nM |  | 75 nM | 3.12 nM | 76 nM
COc1ccccc1N1CCN(CCCCN2CCn3c(cc4ccccc43)C2=O)CC1 | 0.87 nM | 33 nM | 89 nM | 1570 nM |  | 45 nM | 4.9 nM | 
O=C(NCCCCN1CCN(c2ccc(Cl)cc2Cl)CC1)c1cc2cc(Cl)ccc2[nH]1 | 0.38 nM | 8100 nM | > 10000 nM | > 10000 nM |  |  |  | 
